Test results reported in patent US20240124418A1 (BioTheryX, Inc., priority 2020, published 2024).

Test system: TNF-α
Test: Cell-based TNF-α inhibition assay (LPS-induced PBMCs, Meso Scale)
Settings: PBMC, PBMCs pretreated 1 h, LPS 100 ng/mL 18-24 h, percentage of stimulated DMSO control; for inhibition at 0.1 µM: compound concentration 0.1 μM; for inhibition at 1 µM: compound concentration 1 μM
Method: Example B1. Cell-Based TNF-α Inhibition Assay
Frozen primary blood mononuclear cells (PBMCs) were quick thawed, washed once with RPMI 1640 media supplemented with 10% fetal bovine serum, 1% penicillin, and 1% streptomycin, and plated in a 96 well plate at 200,000 cells per well. The cells were pretreated with DMSO only as a control or a compound for 1 h, and then induced with LPS (lipopolysaccharide) (100 ng/mL) for 18-24 h. The supernatant was analyzed for TNF-α using the Meso Scale assay. Compound activity was determined as a percentage of the stimulated DMSO control. The results are summarized in Table 1, where A represents a percent inhibition value ≥60%; B represents a percent inhibition value <60% and ≥40%; C represents a percent inhibition value <40% and ≥20%; and D represents a single percent inhibition value <20%.

Structure (SMILES)	inhibition at 0.1 µM [%]	inhibition at 1 µM [%]
CCOc1cc([C@@H](CS(C)(=O)=O)N2C(=O)c3cccc(NC(=O)CCCc4cn(CCNCc5ccc(OCc6scc7c6CN(C6CCC(=O)NC6=O)C7=O)cc5)nn4)c3C2=O)ccc1OC (stereo partly drawn) [Compound A48, 4-[1-(2-{[(4-{[5-(2,6-Dioxopiperidin-3-yl)-4-oxo-4H,5H,6H-thieno[3,4-c]pyrrol-1-yl]methoxy}phenyl)methyl]amino}ethyl)-1H-1,2,3-triazol-4-yl]-N-{2-[(1S)-1-(3-ethoxy-4-methoxyphenyl)-2-methanesulfonylethyl]-1,3-dioxo-2,3-dihydro-1H-isoindol-4-yl}butanamide]	40 to 60	≥ 60
CCOc1cc([C@@H](CS(C)(=O)=O)N2C(=O)c3cccc(CCCCCCCCCCNCc4ccc(OCc5scc6c5CN(C5CCC(=O)NC5=O)C6=O)cc4)c3C2=O)ccc1OC (stereo partly drawn) [Compound A49, 4-(10-{[(4-{[5-(2,6-Dioxopiperidin-3-yl)-4-oxo-4H,5H,6H-thieno[3,4-c]pyrrol-1-yl]methoxy}phenyl)methyl]amino}decyl)-2-[(1S)-1-(3-ethoxy-4-methoxyphenyl)-2-methanesulfonylethyl]-2,3-dihydro-1H-isoindole-1,3-dione]	≥ 60	≥ 60
CCOc1cc([C@@H](CS(C)(=O)=O)N2C(=O)c3cccc(OCCCCCCCCCNCc4ccc(OCc5scc6c5CN(C5CCC(=O)NC5=O)C6=O)cc4)c3C2=O)ccc1OC (stereo partly drawn) [Compound A50, 4-[(9-{[(4-{[5-(2,6-Dioxopiperidin-3-yl)-4-oxo-4H,5H,6H-thieno[3,4-c]pyrrol-1-yl]methoxy}phenyl)methyl]amino}nonyl)oxy]-2-[(1S)-1-(3-ethoxy-4-methoxyphenyl)-2-methane-sulfonylethyl]-2,3-dihydro-1H-isoindole-1,3-dione]	≥ 60	≥ 60
CCOc1cc([C@@H](CS(C)(=O)=O)N2C(=O)c3cccc(NCCc4ccc(CCCCNCc5ccc(OCc6scc7c6CN(C6CCC(=O)NC6=O)C7=O)cc5)cc4)c3C2=O)ccc1OC (stereo partly drawn) [Compound A51, 4-({2-[4-(4-{[(4-{[5-(2,6-Dioxopiperidin-3-yl)-4-oxo-4H,5H,6H-thieno[3,4-c]-pyrrol-1-yl]methoxy}phenyl)methyl]amino}butyl)phenyl]ethyl}amino)-2-[(1S)-1-(3-ethoxy-4-methoxyphenyl)-2-methanesulfonylethyl]-2,3-dihydro-1H-isoindole-1,3-dione]	≥ 60	≥ 60
CCOc1cc([C@@H](CS(C)(=O)=O)N2C(=O)c3cc(CCCCCCCCCCCCC(=O)N[C@H](C(=O)N4C[C@H](O)C[C@H]4C(=O)NCc4ccc(-c5scnc5C)cc4)C(C)(C)C)cc(NC(C)=O)c3C2=O)ccc1OC [Compound A61, (2S,4R)-1-[(2S)-2-(13-{7-Acetamido-2-[(1S)-1-(3-ethoxy-4-methoxyphenyl)-2-methanesulfonylethyl]-1,3-dioxo-2,3-dihydro-1H-isoindol-5-yl}tridecanamido)-3,3-dimethylbutanoyl]-4-hydroxy-N-{[4-(4-methyl-1,3-thiazol-5-yl)phenyl]methyl}pyrrolidine-2-carboxamide]	≥ 60	≥ 60
CCOc1cc([C@@H](CS(C)(=O)=O)N2C(=O)c3cccc(CCCCCCCCCCC(=O)N[C@H](C(=O)N4C[C@H](O)C[C@H]4C(=O)NCc4ccc(-c5scnc5C)cc4)C(C)(C)C)c3C2=O)ccc1OC [Compound A62, (2S,4R)-1-[(2S)-2-(11-{2-[(1S)-1-(3-Ethoxy-4-methoxyphenyl)-2-methanesulfonylethyl]-1,3-dioxo-2,3-dihydro-1H-isoindol-4-yl}undecanamido)-3,3-dimethylbutanoyl]-4-hydroxy-N-{[4-(4-methyl-1,3-thiazol-5-yl)phenyl]methyl}pyrrolidine-2-carboxamide]	≥ 60	≥ 60
CCOc1cc([C@@H](CS(C)(=O)=O)N2C(=O)c3cccc(NC(=O)CCCCN4CCN(CC(=O)N[C@H](C(=O)N5C[C@H](O)C[C@H]5C(=O)NCc5ccc(-c6scnc6C)cc5)C(C)(C)C)CC4)c3C2=O)ccc1OC [Compound A63, (2S,4R)-1-[(2S)-2-(2-{4-[4-({2-[(1S)-1-(3-Ethoxy-4-methoxyphenyl)-2-methanesulfonylethyl]-1,3-dioxo-2,3-dihydro-1H-isoindol-4-yl}carbamoyl)butyl]piperazin-1-yl}acet-amido)-3,3-dimethylbutanoyl]-4-hydroxy-N-{[4-(4-methyl-1,3-thiazol-5-yl)phenyl]methyl}-pyrrolidine-2-carboxamide]	≥ 60	≥ 60
CCOc1cc([C@@H](CS(C)(=O)=O)N2C(=O)c3cccc(NC(=O)CCCCCCCCCCC(=O)N[C@H](C(=O)N4C[C@H](O)C[C@H]4C(=O)NCc4ccc(-c5scnc5C)cc4)C(C)(C)C)c3C2=O)ccc1OC [Compound A64, N-{2-[(1S)-1-(3-Ethoxy-4-methoxyphenyl)-2-methanesulfonylethyl]-1,3-dioxo-2,3-dihydro-1H-isoindol-4-yl}-N′-[(2S)-1-[(2S,4R)-4-hydroxy-2-({[4-(4-methyl-1,3-thiazol-5-yl)phenyl]methyl}carbamoyl)pyrrolidin-1-yl]-3,3-dimethyl-1-oxobutan-2-yl]dodecanediamide]	≥ 60	≥ 60
CCOc1cc([C@@H](CS(C)(=O)=O)N2C(=O)c3cccc(NC(=O)CCCCCCCCCN[C@H](C(=O)N4C[C@H](O)C[C@H]4C(=O)NCc4ccc(-c5scnc5C)cc4)C(C)(C)C)c3C2=O)ccc1OC [Compound A65, (2S,4R)-1-[(2S)-2-{[9-({2-[(1S)-1-(3-Ethoxy-4-methoxyphenyl)-2-methanesulfonylethyl]-1,3-dioxo-2,3-dihydro-1H-isoindol-4-yl}carbamoyl)nonyl]amino}-3,3-dimethylbutanoyl]-4-hydroxy-N-{[4-(4-methyl-1,3-thiazol-5-yl)phenyl]methyl}pyrrolidine-2-carboxamide]	≥ 60	≥ 60
CCOc1cc([C@@H](CS(C)(=O)=O)N2C(=O)c3cccc(NCC(=O)N4CCN(CCCCC(=O)N[C@H](C(=O)N5C[C@H](O)C[C@H]5C(=O)NCc5ccc(-c6scnc6C)cc5)C(C)(C)C)CC4)c3C2=O)ccc1OC [Compound A66, (2S,4R)-1-[(2S)-2-(5-{4-[2-({2-[(1S)-1-(3-Ethoxy-4-methoxyphenyl)-2-methanesulfonylethyl]-1,3-dioxo-2,3-dihydro-1H-isoindol-4-yl}amino)acetyl]piperazin-1-yl}pentan-amido)-3,3-dimethylbutanoyl]-4-hydroxy-N-{[4-(4-methyl-1,3-thiazol-5-yl)phenyl]methyl}-pyrrolidine-2-carboxamide]	40 to 60	≥ 60
CCOc1cc([C@@H](CS(C)(=O)=O)N2C(=O)c3cccc(NC(=O)CCCCCCCCOc4cc(-c5scnc5C)ccc4CNC(=O)[C@@H]4C[C@@H](O)CN4C(=O)[C@@H](NC(C)=O)C(C)(C)C)c3C2=O)ccc1OC [Compound A74, (2S,4R)-1-[(2S)-2-Acetamido-3,3-dimethylbutanoyl]-N-[(2-{[8-({2-[(1S)-1-(3-ethoxy-4-methoxyphenyl)-2-methanesulfonylethyl]-1,3-dioxo-2,3-dihydro-1H-isoindol-4-yl}-carbamoyl)octyl]oxy}-4-(4-methyl-1,3-thiazol-5-yl)phenyl)methyl]-4-hydroxypyrrolidine-2-carboxamide]	≥ 60	≥ 60
CCOc1cc([C@@H](CS(C)(=O)=O)N2C(=O)c3cccc(NC(=O)CCCCCCCCCCOc4cc(-c5scnc5C)ccc4CNC(=O)[C@@H]4C[C@@H](O)CN4C(=O)[C@@H](NC(C)=O)C(C)(C)C)c3C2=O)ccc1OC [Compound A75, (2S,4R)-1-[(2S)-2-Acetamido-3,3-dimethylbutanoyl]-N-[(2-{[10-({2-[(1S)-1-(3-ethoxy-4-methoxyphenyl)-2-methanesulfonylethyl]-1,3-dioxo-2,3-dihydro-1H-isoindol-4-yl}-carbamoyl)decyl]oxy}-4-(4-methyl-1,3-thiazol-5-yl)phenyl)methyl]-4-hydroxypyrrolidine-2-carboxamide]	≥ 60	≥ 60
CCOc1cc([C@@H](CS(C)(=O)=O)N2C(=O)c3cccc(NC(=O)CCCCCCOc4cc(-c5scnc5C)ccc4CNC(=O)[C@@H]4C[C@@H](O)CN4C(=O)[C@@H](NC(C)=O)C(C)(C)C)c3C2=O)ccc1OC [Compound A76, (2S,4R)-1-[(2S)-2-Acetamido-3,3-dimethylbutanoyl]-N-[(2-{[6-({2-[(1S)-1-(3-ethoxy-4-methoxyphenyl)-2-methanesulfonylethyl]-1,3-dioxo-2,3-dihydro-1H-isoindol-4-yl}-carbamoyl)hexyl]oxy}-4-(4-methyl-1,3-thiazol-5-yl)phenyl)methyl]-4-hydroxypyrrolidine-2-carboxamide]	40 to 60	≥ 60
CCOc1cc([C@@H](CS(C)(=O)=O)N2C(=O)c3cccc(NC(=O)CCCCCCCN4CCN(CC(=O)Nc5ccc6c(C7CCC(=O)NC7=O)nn(C)c6c5)CC4)c3C2=O)ccc1OC (stereo partly drawn) [Compound A77, 8-[4-({[3-(2,6-Dioxopiperidin-3-yl)-1-methyl-1H-indazol-6-yl]carbamoyl}-methyl)piperazin-1-yl]-N-{2-[(1S)-1-(3-ethoxy-4-methoxyphenyl)-2-methanesulfonylethyl]-1,3-dioxo-2,3-dihydro-1H-isoindol-4-yl}octanamide]	≥ 60	≥ 60
